Assay results from US11793849B2, “Method of Chinese herbal medicine extract used for treating multiple diseases caused by drug resistant bacteria infection” (priority 2016, dated 2023).
Read-outs that look alike come from different tables or passages of the source.

Legend:
MDRPA [1] = experiment: Checkerboard assay (combined-use MIC, FIC); type: cell-based, Pseudomonas aeruginosa; settings: for FIC, all strains / MIC50 of the antibiotic after combined use / MIC90 of the antibiotic after combined use / reduction of the antibiotic's MIC50 vs single use / reduction of the antibiotic's MIC90 vs single use / share of strains with FIC ≤ 0.5: 20 MDRPAs
Description: Test methods of the sensibilization effects of the test product to similar antibiotics: it is operated by referring to a checkerboard assay recommended by NCCLS.
The checkerboard assay is performed in a 96-pore sterile culture plate.
Calculation of a Fractional Inhibitory Concentration (FIC): FIC=S20b combined-use MIC/S20b single-use MIC+antibiotic combined-use MIC/antibiotic single-use MIC. By calculating the FIC, the combined antibacterial interaction between the EA and the antibiotic is evaluated, with synergistic effect for FIC≤0.5, additive effect for 0.5<FIC≤1, indifferent effect for 1<FIC≤2 and antagonistic effect for FIC>2. According to a sterile growth pore, the optimum concentration ratio between the EA and the antibiotic is founded out. At last, the effect of the EA to strengthen the efficacy of the antibiotic is evaluated.

MDRPA [2] = experiment: MIC determination, microdilution broth method;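 note: broth microdilution per NCCLS recommendations, testing Pithecellobium clypearia water or ethanol extracts against multidrug-resistant Pseudomonas aeruginosa, with MIC50 and MIC90 derived statistically from individual MICs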
[3] = antibiotic with 10% ethanol extract
[4] = antibiotic with 60% ethanol extract
[5] = antibiotic with 95% ethanol extract
[6] = antibiotic with EA (water extract)
[7] = 20 MDRPAs, EA = 60% ethanol extract
[8] = 20 MDRPAs, EA = 95% ethanol extract
[9] = MDRPAs P1-P20, single use, EA=P. clypearia 10% ethanol extract
[10] = MDRPAs P1-P20, single use, EA=P. clypearia water extract
[11] = single use, 20 MDRPAs, section of the 10% ethanol extract
[12] = single use, 20 MDRPAs, section of the 60% ethanol extract
[13] = single use, 20 MDRPAs, section of the 95% ethanol extract

CC(C)(O/N=C(\C(=O)N[C@@H]1C(=O)N2C(C(=O)[O-])=C(C[n+]3ccccc3)CS[C@H]12)c1csc(N)n1)C(=O)O [CAZ, Ceftazidime]
45%: share of strains with FIC ≤ 0.5 (MDRPA [1]; [6])
1 µg/mL: combined-use MIC (MDRPA [1]; strain P11, EA (P. clypearia 10% ethanol extract) combined with CAZ) | combined-use MIC (MDRPA [1]; strain P11, EA (P. clypearia water extract) combined with CAZ)
35%: share of strains with FIC ≤ 0.5 (MDRPA [1]; [3])
2 µg/mL: combined-use MIC (MDRPA [1]; strain P3, EA (P. clypearia 10% ethanol extract) combined with CAZ) | combined-use MIC (MDRPA [1]; strain P3, EA (P. clypearia water extract) combined with CAZ) | combined-use MIC (MDRPA [1]; strain P10, EA (P. clypearia 10% ethanol extract) combined with CAZ) | combined-use MIC (MDRPA [1]; strain P10, EA (P. clypearia water extract) combined with CAZ) | combined-use MIC (MDRPA [1]; strain P12, EA (P. clypearia 10% ethanol extract) combined with CAZ) | combined-use MIC (MDRPA [1]; strain P12, EA (P. clypearia water extract) combined with CAZ) | combined-use MIC (MDRPA [1]; strain P19, EA (P. clypearia 10% ethanol extract) combined with CAZ) | combined-use MIC (MDRPA [1]; strain P19, EA (P. clypearia water extract) combined with CAZ) | MIC (MDRPA [2]; Pseudomonas aeruginosa, read-out: MIC (single use), strain P11, EA=P. clypearia 10% ethanol extract) | MIC (MDRPA [2]; Pseudomonas aeruginosa, read-out: MIC (single use), strain P11, EA=P. clypearia water extract)
128 µg/mL: MIC90 of the antibiotic after combined use (MDRPA [1]; [5]) | combined-use MIC (MDRPA [1]; strain P15, EA (P. clypearia 10% ethanol extract) combined with CAZ) | combined-use MIC (MDRPA [1]; strain P15, EA (P. clypearia water extract) combined with CAZ)
25%: share of strains with FIC ≤ 0.5 (MDRPA [1]; [5])
16 µg/mL: MIC50 of the antibiotic after combined use (MDRPA [1]; [3]) | MIC50 of the antibiotic after combined use (MDRPA [1]; [5]) | combined-use MIC (MDRPA [1]; strain P1, EA (P. clypearia 10% ethanol extract) combined with CAZ) | combined-use MIC (MDRPA [1]; strain P2, EA (P. clypearia 10% ethanol extract) combined with CAZ) | combined-use MIC (MDRPA [1]; strain P2, EA (P. clypearia water extract) combined with CAZ) | combined-use MIC (MDRPA [1]; strain P18, EA (P. clypearia water extract) combined with CAZ) | MIC (MDRPA [2]; Pseudomonas aeruginosa, read-out: MIC (single use), strain P13, EA=P. clypearia 10% ethanol extract) | MIC (MDRPA [2]; Pseudomonas aeruginosa, read-out: MIC (single use), strain P13, EA=P. clypearia water extract) | MIC (MDRPA [2]; Pseudomonas aeruginosa, read-out: MIC (single use), strain P14, EA=P. clypearia 10% ethanol extract) | MIC (MDRPA [2]; Pseudomonas aeruginosa, read-out: MIC (single use), strain P14, EA=P. clypearia water extract)
4 µg/mL: combined-use MIC (MDRPA [1]; strain P9, EA (P. clypearia 10% ethanol extract) combined with CAZ) | combined-use MIC (MDRPA [1]; strain P9, EA (P. clypearia water extract) combined with CAZ) | combined-use MIC (MDRPA [1]; strain P13, EA (P. clypearia 10% ethanol extract) combined with CAZ) | combined-use MIC (MDRPA [1]; strain P13, EA (P. clypearia water extract) combined with CAZ) | MIC (MDRPA [2]; Pseudomonas aeruginosa, read-out: MIC (single use), strain P3, EA=P. clypearia 10% ethanol extract) | MIC (MDRPA [2]; Pseudomonas aeruginosa, read-out: MIC (single use), strain P3, EA=P. clypearia water extract) | MIC (MDRPA [2]; Pseudomonas aeruginosa, read-out: MIC (single use), strain P10, EA=P. clypearia 10% ethanol extract) | MIC (MDRPA [2]; Pseudomonas aeruginosa, read-out: MIC (single use), strain P10, EA=P. clypearia water extract) | MIC (MDRPA [2]; Pseudomonas aeruginosa, read-out: MIC (single use), strain P19, EA=P. clypearia 10% ethanol extract) | MIC (MDRPA [2]; Pseudomonas aeruginosa, read-out: MIC (single use), strain P19, EA=P. clypearia water extract)
32 µg/mL: combined-use MIC (MDRPA [1]; strain P5, EA (P. clypearia 10% ethanol extract) combined with CAZ) | combined-use MIC (MDRPA [1]; strain P5, EA (P. clypearia water extract) combined with CAZ) | combined-use MIC (MDRPA [1]; strain P7, EA (P. clypearia 10% ethanol extract) combined with CAZ) | combined-use MIC (MDRPA [1]; strain P7, EA (P. clypearia water extract) combined with CAZ) | combined-use MIC (MDRPA [1]; strain P18, EA (P. clypearia 10% ethanol extract) combined with CAZ) | MIC50 (MDRPA [2]; [7]) | MIC50 (MDRPA [2]; [8]) | MIC50 (MDRPA [2]; [9]) | MIC50 (MDRPA [2]; [10]) | MIC50 (MDRPA [2]; Pseudomonas aeruginosa) | MIC (MDRPA [2]; Pseudomonas aeruginosa, read-out: MIC (single use), strain P1, EA=P. clypearia 10% ethanol extract) | MIC (MDRPA [2]; Pseudomonas aeruginosa, read-out: MIC (single use), strain P1, EA=P. clypearia water extract) | MIC (MDRPA [2]; Pseudomonas aeruginosa, read-out: MIC (single use), strain P16, EA=P. clypearia 10% ethanol extract) | MIC (MDRPA [2]; Pseudomonas aeruginosa, read-out: MIC (single use), strain P16, EA=P. clypearia water extract) | MIC (MDRPA [2]; Pseudomonas aeruginosa, read-out: MIC (single use), strain P17, EA=P. clypearia 10% ethanol extract) | MIC (MDRPA [2]; Pseudomonas aeruginosa, read-out: MIC (single use), strain P17, EA=P. clypearia water extract) | MIC50 (MDRPA [2]; [11]) | MIC50 (MDRPA [2]; [12]) | MIC50 (MDRPA [2]; [13])
≤ 2: FIC, all strains (MDRPA [1]; [3]) | FIC, all strains (MDRPA [1]; [4]) | FIC, all strains (MDRPA [1]; [5]) | FIC, all strains (MDRPA [1]; [6])
64 µg/mL: MIC90 of the antibiotic after combined use (MDRPA [1]; [3]) | MIC90 of the antibiotic after combined use (MDRPA [1]; [4]) | MIC90 of the antibiotic after combined use (MDRPA [1]; [6]) | combined-use MIC (MDRPA [1]; strain P4, EA (P. clypearia 10% ethanol extract) combined with CAZ) | combined-use MIC (MDRPA [1]; strain P4, EA (P. clypearia water extract) combined with CAZ) | combined-use MIC (MDRPA [1]; strain P8, EA (P. clypearia 10% ethanol extract) combined with CAZ) | combined-use MIC (MDRPA [1]; strain P8, EA (P. clypearia water extract) combined with CAZ) | combined-use MIC (MDRPA [1]; strain P20, EA (P. clypearia 10% ethanol extract) combined with CAZ) | combined-use MIC (MDRPA [1]; strain P20, EA (P. clypearia water extract) combined with CAZ) | MIC (MDRPA [2]; Pseudomonas aeruginosa, read-out: MIC (single use), strain P2, EA=P. clypearia 10% ethanol extract) | MIC (MDRPA [2]; Pseudomonas aeruginosa, read-out: MIC (single use), strain P2, EA=P. clypearia water extract) | MIC (MDRPA [2]; Pseudomonas aeruginosa, read-out: MIC (single use), strain P5, EA=P. clypearia 10% ethanol extract) | MIC (MDRPA [2]; Pseudomonas aeruginosa, read-out: MIC (single use), strain P5, EA=P. clypearia water extract) | MIC (MDRPA [2]; Pseudomonas aeruginosa, read-out: MIC (single use), strain P7, EA=P. clypearia 10% ethanol extract) | MIC (MDRPA [2]; Pseudomonas aeruginosa, read-out: MIC (single use), strain P7, EA=P. clypearia water extract) | MIC (MDRPA [2]; Pseudomonas aeruginosa, read-out: MIC (single use), strain P12, EA=P. clypearia 10% ethanol extract) | MIC (MDRPA [2]; Pseudomonas aeruginosa, read-out: MIC (single use), strain P12, EA=P. clypearia water extract) | MIC (MDRPA [2]; Pseudomonas aeruginosa, read-out: MIC (single use), strain P18, EA=P. clypearia 10% ethanol extract) | MIC (MDRPA [2]; Pseudomonas aeruginosa, read-out: MIC (single use), strain P18, EA=P. clypearia water extract)
50%: reduction of the antibiotic's MIC50 vs single use (MDRPA [1]; [3]) | reduction of the antibiotic's MIC50 vs single use (MDRPA [1]; [5]) | reduction of the antibiotic's MIC90 vs single use (MDRPA [1]; [5])
40%: share of strains with FIC ≤ 0.5 (MDRPA [1]; [4])
75%: reduction of the antibiotic's MIC90 vs single use (MDRPA [1]; [3]) | reduction of the antibiotic's MIC50 vs single use (MDRPA [1]; [4]) | reduction of the antibiotic's MIC90 vs single use (MDRPA [1]; [4]) | reduction of the antibiotic's MIC50 vs single use (MDRPA [1]; [6]) | reduction of the antibiotic's MIC90 vs single use (MDRPA [1]; [6])
8 µg/mL: MIC50 of the antibiotic after combined use (MDRPA [1]; [4]) | MIC50 of the antibiotic after combined use (MDRPA [1]; [6]) | combined-use MIC (MDRPA [1]; strain P1, EA (P. clypearia water extract) combined with CAZ) | combined-use MIC (MDRPA [1]; strain P14, EA (P. clypearia 10% ethanol extract) combined with CAZ) | combined-use MIC (MDRPA [1]; strain P14, EA (P. clypearia water extract) combined with CAZ) | combined-use MIC (MDRPA [1]; strain P16, EA (P. clypearia 10% ethanol extract) combined with CAZ) | combined-use MIC (MDRPA [1]; strain P16, EA (P. clypearia water extract) combined with CAZ) | combined-use MIC (MDRPA [1]; strain P17, EA (P. clypearia 10% ethanol extract) combined with CAZ) | combined-use MIC (MDRPA [1]; strain P17, EA (P. clypearia water extract) combined with CAZ) | MIC (MDRPA [2]; Pseudomonas aeruginosa, read-out: MIC (single use), strain P9, EA=P. clypearia 10% ethanol extract) | MIC (MDRPA [2]; Pseudomonas aeruginosa, read-out: MIC (single use), strain P9, EA=P. clypearia water extract)
256 µg/mL: combined-use MIC (MDRPA [1]; strain P6, EA (P. clypearia 10% ethanol extract) combined with CAZ) | combined-use MIC (MDRPA [1]; strain P6, EA (P. clypearia water extract) combined with CAZ) | MIC90 (MDRPA [2]; [7]) | MIC90 (MDRPA [2]; [8]) | MIC90 (MDRPA [2]; [9]) | MIC90 (MDRPA [2]; [10]) | MIC90 (MDRPA [2]; Pseudomonas aeruginosa) | MIC (MDRPA [2]; Pseudomonas aeruginosa, read-out: MIC (single use), strain P4, EA=P. clypearia 10% ethanol extract) | MIC (MDRPA [2]; Pseudomonas aeruginosa, read-out: MIC (single use), strain P4, EA=P. clypearia water extract) | MIC (MDRPA [2]; Pseudomonas aeruginosa, read-out: MIC (single use), strain P8, EA=P. clypearia 10% ethanol extract) | MIC (MDRPA [2]; Pseudomonas aeruginosa, read-out: MIC (single use), strain P8, EA=P. clypearia water extract) | MIC (MDRPA [2]; Pseudomonas aeruginosa, read-out: MIC (single use), strain P15, EA=P. clypearia 10% ethanol extract) | MIC (MDRPA [2]; Pseudomonas aeruginosa, read-out: MIC (single use), strain P15, EA=P. clypearia water extract) | MIC (MDRPA [2]; Pseudomonas aeruginosa, read-out: MIC (single use), strain P20, EA=P. clypearia 10% ethanol extract) | MIC (MDRPA [2]; Pseudomonas aeruginosa, read-out: MIC (single use), strain P20, EA=P. clypearia water extract) | MIC90 (MDRPA [2]; [11]) | MIC90 (MDRPA [2]; [12]) | MIC90 (MDRPA [2]; [13])
512 µg/mL: MIC (MDRPA [2]; Pseudomonas aeruginosa, read-out: MIC (single use), strain P6, EA=P. clypearia 10% ethanol extract) | MIC (MDRPA [2]; Pseudomonas aeruginosa, read-out: MIC (single use), strain P6, EA=P. clypearia water extract)
2 to 512 µg/mL: MIC Range (MDRPA [2]; [7]) | MIC Range (MDRPA [2]; [8]) | MIC Range (MDRPA [2]; [9]) | MIC Range (MDRPA [2]; [10])
